Measured values taken from patent US20150157615A1, “COMPOSITIONS AND METHOD FOR THE STIMULATION OF THE FEMALE AND MALE SEXUAL RESPONSE” (MULTICHEM S.A.S. DI GABRIELE SEGALLA, priority 2013, published 2015).

How the values were obtained:
human skin = conditions: application on human skin; IJSPT Vol. 6 No. 2, 2011; cited from earlier work
female sexual response = test system: female sexual response
Method: (§1) The application is preferably carried out 4-5 minutes before intercourse, but can also be repeated during intercourse itself whenever required.

male sexual response = test system: male sexual response
Method: as §1

skin [1] = conditions: in the concentrations provided by the present invention
skin [2] = conditions: Norwegian Food Safety Authority risk profile / Council of Europe monograph 2008; cited from earlier work
[3] = women, alone, at least 0.5% up to 5% by weight, topical
[4] = men, alone, at least 0.5% up to 5% by weight, topical

## CC1CCC(C(C)C)C(O)C1 (stereo not drawn) [menthol]
Human skin
  flow of blood in the part treated topically: reduces the flow of blood

## CC1CCC(C(C)C)C(OC(=O)c2cccnc2)C1 (stereo not drawn) [menthyl nicotinate, 5-Methyl-2-(isopropyl) cyclohexyl nicotinate]
Female sexual response; in vivo
  turgidity of the tissues / reddening or itching: without however causing annoying reddening or itching
Female sexual response; [3]
  latency period (period of time between orgasms): Decrease
  number of orgasms: Multiple orgasms
  stimulation of the clitoris: Intense and prolonged stimulation
  time necessary for reaching orgasm: Decrease
  times of foreplay: Decrease
Female sexual response; women, depends on individual and concentration of active ingredient
  duration of perception of cool tingling in the zone of application: up to one hour and more
Male sexual response; in vivo
  turgidity of the tissues / reddening or itching: without however causing annoying reddening or itching
Male sexual response; [4]
  flow of blood in the corpora cavernosa, turgidity and power of erection: A greater flow of blood
  retardant and reinvigorating effect: A retardant and at the same reinvigorating effect
  sexual stimulation: more intense
  voluntary control of ejaculation: Greater ability
Skin [1]
  rubefacient and itching effect: does not exhibit any unpleasant rubefacient and itching effect

## COC(=O)c1cccnc1 [methyl nicotinate]
Skin [2]
  concentration at which highly irritating to the skin in some cases: 0.00137-0.003%
